Literature values in patent US12005094B2, “Inhibitor of inflammatory conditions” (Compton Developments Ltd., priority 2009, dated 2024).

Key:
[1] = test system: EAE; conditions: Clomipramine vs vehicle control, divergent from day 10
[2] = test system: lipoxygenase products
[3] = test system: ear edema; conditions: topical
[4] = test system: antigen-induced arthritis; conditions: oral administration
[5] = test system: skin edema and hyperplasia; conditions: topical administration

| SMILES | onset of disease symptoms (average EAE scores) [1] | effect on lipoxygenase products [2] | PGE2 [3] | ear edema [3] | nitrite release [3] | reduction in paw swelling [4] | skin edema and hyperplasia [5] |
| --- | --- | --- | --- | --- | --- | --- | --- |
| CN(C)CCCN1c2ccccc2CCc2ccc(Cl)cc21 [Clomipramine] | delayed |  |  |  |  |  |  |
| C=C(C)[C@@H]1CC[C@]2(C)CC[C@]3(C)[C@H](CC[C@@H]4[C@@]5(C)CC[C@H](O)C(C)(C)[C@@H]5CC[C@]43C)[C@@H]12 [Lupeol, lupeol] |  | no effect on lipoxygenase products | significant reduction in PGE2 | suppressed ear edema | weaker inhibition of nitrite release | 39% | significantly inhibited skin edema and hyperplasia |
